The values that follow come from patent US20240361317A1, “PROBES BASED ON VOLATILE ORGANIC COMPOUNDS AND USES THEREOF FOR THE DIAGNOSIS AND PROGNOSIS OF PATHOLOGICAL CONDITIONS” (Centre National de la Recherche Scientifique, priority 2021, published 2024).

The target of one experiment is T1, β-D-galactosidase (Homo sapiens, UniProt P16278).
T1 construct: from tissue; host or cells: human blood plasma
T1 sequence (P16278 29-677): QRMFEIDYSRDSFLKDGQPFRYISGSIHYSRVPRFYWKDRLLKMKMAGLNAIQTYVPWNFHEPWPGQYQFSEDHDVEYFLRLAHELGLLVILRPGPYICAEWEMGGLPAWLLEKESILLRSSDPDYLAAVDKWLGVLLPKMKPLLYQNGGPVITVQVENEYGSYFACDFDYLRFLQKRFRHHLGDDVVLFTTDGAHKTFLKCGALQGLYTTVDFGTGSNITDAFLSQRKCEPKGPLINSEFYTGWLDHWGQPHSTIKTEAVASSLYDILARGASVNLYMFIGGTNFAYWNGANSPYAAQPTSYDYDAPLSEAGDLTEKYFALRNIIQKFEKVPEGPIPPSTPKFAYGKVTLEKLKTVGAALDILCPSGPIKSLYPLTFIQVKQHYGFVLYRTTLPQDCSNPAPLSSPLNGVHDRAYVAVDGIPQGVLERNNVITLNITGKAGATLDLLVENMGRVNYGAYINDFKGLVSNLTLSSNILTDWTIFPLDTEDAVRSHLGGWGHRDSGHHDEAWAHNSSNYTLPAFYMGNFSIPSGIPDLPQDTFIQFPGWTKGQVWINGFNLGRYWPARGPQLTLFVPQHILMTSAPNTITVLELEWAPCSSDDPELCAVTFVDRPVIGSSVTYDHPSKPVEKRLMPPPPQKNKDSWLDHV
Put plainly: Plasma protocol: labeled ethanol released in headspace of plasma after adding probe. Type of experiment: biochemical. Conditions: for discernment between healthy patients and cancer patients: cocktail of 4 probes, plasma of breast and lung cancer patients vs 4 healthy. How it is done:
(§1) The plasma (approximately […]) is extracted and stored at −20° C. until analysis. An aliquot of 25 μL of plasma is sampled and inserted into a […] with an insert. This biological sample is added to 50 μL of acetate buffer solution (pH 5), protease inhibitor (1×) and 25 μL probe D5-ethyl-β-D-glucuronide at […]. After hermetic closure and agitation to the vortex of the vial, an SPME (SPME in semi-polar phase of the Car/PDMS, 1 cm long and 75 μm thick type with a 24 ga needle; Supelco) of the gas phase above the sample of a duration of 30 mi is carried out after 2 h, 4 h and 7 h of reaction. Each kinetic point requires a vial reaction, and is carried out in duplicate. The VOCs trapped on the SPME fiber are then analyzed by G-TQMS. GC-TMS detection of the ethanol isotopes (thus including ethanol-D5) is carried out with gas chromatography coupled to a triple quadrupole equipped with an E1 source (TSQ 9000, Thermo Fisher Scientific). The system is controlled by the software TSQ 9000 and the results are analyzed with the Xcalibur software (Thermo Fisher Scientific).
(§2) In order to verify the diagnostic efficacy of this cocktail, it was tested on samples of plasma taken from 4 patients suffering from breast cancer and 3 patients with lung cancer. These patients were diagnosed, but had at the time of sampling not yet received treatment suited to their pathological condition.
After adding the 4 probes (according to the above protocol), the quantity of the 4 isotopes of the ethanol released above the samples of the patients was measured over time. The responses of each isotope were compared with those obtained when the cocktail was added to plasmas of 4 healthy patients. An experimental blank was also carried out each day of analysis. […]
(§3) According to the plasma protocol described above, the probes were used to detect the six enzymatic activities in these samples. […] The VOCs trapped on the SPME fiber are then analyzed by GC-TQMS according to the parameters defined in Tables 4 and 5. […]

For another experiment, the system named is N-acetyl-glucosaminidase. The experiment is described as above. Type of experiment: biochemical, human. As to the method:
as §1, §2
(§4) After adding the 4 probes (according to the above protocol), the quantity of the 4 isotopes of the ethanol released above the samples of the patients was measured over time. The responses of each isotope were compared with those obtained when the cocktail was added to plasmas of 4 healthy patients. An experimental blank was also carried out each day of analysis. These blanks correspond to negative controls wherein the cocktail was added, whereas none of the 4 enzymes was present therein (FIG. 9).
(§5) According to the plasma protocol described above, the probes were used to detect the six enzymatic activities in these samples. To summarize, an aliquot of 25 μL of plasma will be sampled and inserted into a 2 mL vial with an insert. This biological sample was added from 61.4 μL buffer solution (pH 5), 3.6 μL of protease inhibitor (1×) and 10 μL of one or the other of the cocktails. After hermetic closure and agitation to the vortex of the vial, an SPME (SPME in semi-polar phase of the Car/PDMS, 1 cm long and 75 μm thick type with a 24 ga needle, Supelco) of the gas phase above the sample of a duration of 30 min will be carried out after 2 h, 4 h and 7 h of reaction. Each kinetic point requires a vial reaction, and was carried out in duplicate. The VOCs trapped on the SPME fiber are then analyzed by GC-TQMS according to the parameters defined in Tables 4 and 5. […]

The next experiment relates to α-L-fucosidase. The experiment is described as above. In kind it is biochemical, human. As to the method: as §1, §2, §4, §5
Experiment [1] addresses T2, β-glucuronidase (Homo sapiens, UniProt P08236).
T2 construct: from tissue; host or cells: human blood plasma
T2 sequence (P08236 23-651): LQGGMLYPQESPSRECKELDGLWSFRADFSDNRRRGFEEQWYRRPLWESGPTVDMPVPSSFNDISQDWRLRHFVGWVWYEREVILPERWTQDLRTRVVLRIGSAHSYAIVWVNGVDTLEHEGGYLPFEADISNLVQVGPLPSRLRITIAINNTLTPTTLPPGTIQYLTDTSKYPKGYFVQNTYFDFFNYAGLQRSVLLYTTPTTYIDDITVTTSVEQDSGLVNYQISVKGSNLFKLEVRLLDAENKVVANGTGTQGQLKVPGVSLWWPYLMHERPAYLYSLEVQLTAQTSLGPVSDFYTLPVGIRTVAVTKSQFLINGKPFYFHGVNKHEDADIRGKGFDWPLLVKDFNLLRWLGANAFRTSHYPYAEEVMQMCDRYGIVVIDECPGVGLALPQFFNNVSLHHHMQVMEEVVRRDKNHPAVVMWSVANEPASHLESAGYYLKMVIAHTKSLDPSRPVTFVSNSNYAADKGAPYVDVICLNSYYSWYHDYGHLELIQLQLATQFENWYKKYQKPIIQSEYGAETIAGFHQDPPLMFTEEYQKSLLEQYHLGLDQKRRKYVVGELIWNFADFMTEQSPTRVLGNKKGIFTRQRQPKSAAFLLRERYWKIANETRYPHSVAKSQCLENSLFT
Put plainly: Reference method: hydrolysis of para-nitrophenol glucuronide, UV detection at 400 nm, on patient plasma. In kind it is biochemical. Conditions: plasma of cancer and healthy patients. An excerpt:
The limit of detection of the enzyme with the probe is between […] (signal to noise 9) and […] (signal to noise 37), which leads to a minimum quantity of detectable enzyme equal to 1.10^−18 mol. This LOD is 100 times lower than the threshold value obtained according to the reference detection method of this same enzyme (Li et al., 2018, Biotechnology Letters, 40, 11 1-118; Xiao et al., 2020, RSC Advances, 10, 22966). This method corresponds to the hydrolysis of para-nitrophenol glucuronide. It was carried out in acetate buffer […], followed by UV detection at 400 nm of the para-nitrophenol (FIG. 2).
Finally, these same plasma samples were tested with the reference method targeting […] (UV detection in the presence of para-nitrophenol; protocol described page 5).

Experiment [2] has as its target T2, β-glucuronidase. Put plainly: Plasma protocol: labeled ethanol released in headspace of plasma after adding probe. Type of experiment: biochemical. Conditions: Ethanol-D5; Cocktail 1; 5·10^−4/5·10^−5 mol·L^−1; Splitless. How it is done:
as §1
Blood samples were taken by the caregiver associated with the oncological service, then collected and pretreated with the CIC. This study included samples of plasma taken from 11 patients suffering from breast cancer and 11 patients suffering from lung cancer.
These patients were diagnosed, but had at the time of sampling not yet received treatment. Their response was compared to that obtained from the plasma of 4 healthy patients. The results were compared to an experimental blank wherein the probe was added, but the enzyme was not present (FIG. 3). […]
After adding the 4 probes (according to the above protocol), the quantity of the 4 isotopes of the ethanol released above the samples of the patients was measured over time. […]
as §3

A further experiment has as its system N-acetyl glucosaminidase. Nature of the experiment: Specificity study: hydrolysis of probes by the enzyme. Type of experiment: biochemical. How it is done:
(§6) The detection performances of this compound in the presence of ethanol and ethanol-D5 were then verified. […] The detection ranges of ethanol-D5 and ethanol-^13C-D5 were then carried out under SPME sampling conditions developed for biological samples (30 min of sampling at 30° C.). The two isotopes were present in mixtures in solution. The limits of detection obtained are respectively […]. The SPME-GC-TQMS method therefore allows a sharp differentiation of the two isotopes according to their mass fragmentation. An experimental study was then carried out in order to evaluate the affinity of the D5-ethyl-β-D-glucuronide and ^13C-D5-ethyl-N-acetylglucosamine for their respective enzyme (β-glucuronidase and N-acetyl glucosaminidase). For this, the efficacy of hydrolysis of each of these enzymes was studied in the presence of their respective probe (FIG. 6) then in the presence of the substrate probe of its partner (FIG. 7). […] In the presence of the two substrates, each enzyme gives a signal only for the probe specific to it (FIG. 8).

Experiment [3] addresses β-glucuronidase (Escherichia coli, UniProt P05804). The experiment is described as above. Type of experiment: biochemical. As to the method: as §6
The test system of experiment [4] is KB tumors (tumor xenograft, tumor cells of the nasopharynx KB). Put plainly: In vivo test of cocktail of 4 probes: ethanol isotopes exhaled after i.v. injection. The arrangement: species or system mouse. Conditions: 15 days after implantation; 1 h after i.v. injection. How it is done:
In the context of this study, the quantity of 4 expired isotopes by mouse models carrying a tumor xenograft (tumor cells of the nasopharynx KB; n=6) was compared to that exhaled by healthy animals (n=6) after i.v. injection of the cocktail.
The concentration of the 4 probes to be injected was determined beforehand according to a precise experimental plan having the objective of determining the amount of each probe inducing a minimum ethanol response in healthy animals (signal reaching a low or even zero basal level). In this context, the healthy animals received increasing doses of the 4 probes ([…] at 100 μg·kg^−1). The animals were then placed in a hermetic cage for 1 h. The amount of each ethanol isotope present in the breath of the animals was then measured for 30 min via an SPME sample, then a GC-TQMS analysis.
Once the i.v. doses are set, the cocktail was injected into healthy mice and diseased mice after 12 and then 15 days of implantation of the xenograft. The amount of the ethanol isotopes exhaled by the animals was measured 1 h after injection of the cocktail (FIG. 10). A negative control on two mice (healthy and diseased) was carried out. This control consisted of measuring the quantity of 4 isotopes of ethanol in the air surrounding the mice which had not received the cocktail. Ethanol-D5, ethanol-D4 and ethanol-^13CD5 were not detected. […]

Sequence of β-glucuronidase (Escherichia coli, UniProt P05804) (P05804 whole entry): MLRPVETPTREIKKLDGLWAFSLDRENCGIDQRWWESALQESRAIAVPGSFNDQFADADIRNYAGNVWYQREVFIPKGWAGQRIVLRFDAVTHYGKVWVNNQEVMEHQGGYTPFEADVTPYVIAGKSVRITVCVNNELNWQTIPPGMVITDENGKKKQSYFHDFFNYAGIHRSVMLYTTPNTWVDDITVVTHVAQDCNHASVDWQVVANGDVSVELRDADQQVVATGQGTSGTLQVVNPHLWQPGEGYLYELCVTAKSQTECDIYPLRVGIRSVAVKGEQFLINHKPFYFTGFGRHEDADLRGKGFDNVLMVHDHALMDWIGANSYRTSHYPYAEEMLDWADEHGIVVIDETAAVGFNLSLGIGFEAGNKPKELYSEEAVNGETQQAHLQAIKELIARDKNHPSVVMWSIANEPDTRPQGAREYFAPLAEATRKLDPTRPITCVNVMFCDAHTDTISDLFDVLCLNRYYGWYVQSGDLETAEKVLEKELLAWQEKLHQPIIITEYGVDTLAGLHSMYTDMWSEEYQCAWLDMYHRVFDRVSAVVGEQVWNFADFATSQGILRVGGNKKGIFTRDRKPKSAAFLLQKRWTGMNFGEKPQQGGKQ

`CCC[C@@H]1C[C@H](CC)[C@H](C)[C@H](C)[C@H]1C`: the “Plasma response range (u.a.)” value on β-D-galactosidase (Ethanol-D2, Cocktail 1, 10^−3/10^−4 mol·L^−1, Splitless) is given as 2000-16000 u.a.

As for `C=C(C)C[C@@H]1[C@@H](CCC)C[C@H](CC)[C@@H](C)[C@@H]1C`, in the experiment with N-acetyl-glucosaminidase (Ethanol-13CD5, Cocktail 2, 10^−3/10^−4 mol·L^−1, Split 1:15), the “Plasma response range (u.a.)” value is reported as 10000-300000 u.a.

With `CCC[C@@H]1C[C@H](C)[C@@H](C)[C@@H](C)[C@@H]1C`, the “Plasma response range (u.a.)” value in the experiment on α-L-fucosidase (Ethanol-D4, Cocktail 3, 10^−3/10^−4 mol·L^−1, Splitless) is recorded as 5000-230000 u.a.

`[2H]C(O[C@@H]1O[C@@H](C)[C@@H](O)[C@@H](O)[C@@H]1O)C([2H])([2H])[2H]` (stereo partly drawn) [D4-ethyl-1-α-L-fucopyranoside]: the “discernment between healthy patients and cancer patients” value with α-L-fucosidase (cocktail of 4 probes, plasma of breast and lung cancer patients vs healthy) is “allow clear discernment between healthy patients and cancer patients”.

Regarding `O=C(O)[C@H]1O[C@@H](Oc2ccc([N+](=O)[O-])cc2)[C@H](O)[C@@H](O)[C@@H]1O` [para-nitrophenol glucuronide], the “detection of the enzyme in the same plasma samples by the reference method” value at β-glucuronidase [1] is “not detected in any of the samples”.

For the compound `CCC[C@@H]1C[C@H](C(C)C)[C@@H](C)[C@H](C)[C@H]1C`, the “Plasma response range (u.a.)” value at β-glucuronidase [2] is given as 1000-35000 u.a.

“^13C-D5-ethyl-N-acetylglucosamide [^13C-D5-ethyl-N-acetylglucosamine]”: the “discernment between healthy patients and cancer patients” value with N-acetyl-glucosaminidase (cocktail of 4 probes, plasma of breast and lung cancer patients vs 4 healthy) was “allow clear discernment between healthy patients and cancer patients”. Further, in the experiment on N-acetyl glucosaminidase, the “hydrolysis of probe by N-acetyl glucosaminidase (labeled ethanol signal)” value is on record as “has hydrolyzed its own probe”. For the same compound, the “hydrolysis of probe by β-glucuronidase (labeled ethanol signal)” value at β-glucuronidase [3] was “does not hydrolysis”.

Consider `[2H]C([2H])(C)O[C@@H]1O[C@H](CO)[C@H](O)[C@H](O)[C@H]1O` [D2-ethyl-β-D-galactopyranoside], for which, in experiment [4], the “activation of probe in the microenvironment of KB (nasopharyngeal) tumors, release of ethanol isotope in exhaled air” value is on record as “activated”. Further, the “discernment between healthy patients and cancer patients” value at β-D-galactosidase is given as “does not make it possible to discern healthy patients from cancer patients”; on β-D-galactosidase (listed as D2-ethyl-β-d-galactopyranoside), “does not make it possible to differentiate healthy patients from breast cancer or lung cancer patients”.
